The IC50 is the concentration at which inhibition is half-maximal.

The values that follow come from US9376425B2, “Heterocyclic compounds as MDM2 inhibitors for the treatment of cancer” (AMGEN INC., priority 2011, dated 2016).

T1 sequence (Q00987 1-188): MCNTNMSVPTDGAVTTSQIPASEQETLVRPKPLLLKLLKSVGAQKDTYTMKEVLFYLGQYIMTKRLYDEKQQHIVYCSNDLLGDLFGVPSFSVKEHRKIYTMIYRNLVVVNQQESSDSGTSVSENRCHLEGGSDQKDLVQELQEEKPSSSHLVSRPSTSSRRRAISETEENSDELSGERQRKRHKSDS

This experiment has as its target T1, human MDM2 (GST-hMDM2 1-188), interaction with biotinylated-p53 (1-83) (Homo sapiens, UniProt Q00987).
T1 construct: Amino acid residues 1-188 of human MDM2 were expressed; made in house; host or cells: Escherichia coli
Kind of experiment: improved HTRF assay (HTRF2 assay), inhibition of HDM2-p53 interaction. It is filed as binding. As to conditions: 0.2 nM GST-hMDM2, 0.5 nM biotinylated-p53, 100 mM KF. The essentials:
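GST-hMDM2 preincubated 20 min at RT with serially diluted compound, then biotinylated p53 (1-83, E. coli) added for 60 min. Detection with SA-XLent, anti-GST cryptate and KF, equilibrated >4 h; final DMSO 2%. TR-FRET read; % inhibition calculated relative to nutlin-3.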
(TR-FRET usually uses a lanthanide donor and a delayed reading to cut background.)
`CC[C@@H](CS(=O)(=O)C(C)(C)C)N1C(=O)[C@@H](CC(=O)O)O[C@H](c2cccc(Cl)c2)[C@H]1c1ccc(Cl)s1` (single isomer, unassigned) [Example 219, 2-((2R,5S,6R)-4-((S)-1-(tert-butylsulfonyl)butan-2-yl)-6-(3-chlorophenyl)-5-(5-chlorothiophen-2-yl)-3-oxomorpholin-2-yl)acetic acid or 2-((2S,5S,6R)-4-((S)-1-(tert-butylsulfonyl)butan-2-yl)-6-(3-chlorophenyl)-5-(5-chlorothiophen-2-yl)-3-oxomorpholin-2-yl)acetic acid] displayed an IC50 of 1 nM.

In turn, `CC[C@@H](CCS(=O)(=O)C(C)(C)C)N1C(=O)[C@@H](CC(=O)O)O[C@H](c2cccc(Cl)c2)[C@H]1c1ccc(Cl)cc1` (single isomer, unassigned) [Example 220, 2-((2R,5R,6R)-4-((S)-1-(tert-butylsulfonyl)pentan-3-yl)-6-(3-chlorophenyl)-5-(4-chlorophenyl)-3-oxomorpholin-2-yl)acetic acid or 2-((2S,5R,6R)-4-((S)-1-(tert-butylsulfonyl)pentan-3-yl)-6-(3-chlorophenyl)-5-(4-chlorophenyl)-3-oxomorpholin-2-yl)acetic acid] gave an IC50 of 9 nM.

For `CC[C@@H](CCS(=O)(=O)C(C)(C)C)N1C(=O)[C@@H](CC(=O)O)O[C@H](c2cccc(Cl)c2)[C@H]1c1ccc(Cl)cc1` (single isomer, unassigned) [Example 221, 2-((2R,5R,6R)-4-((S)-1-(tert-butylsulfonyl)pentan-3-yl)-6-(3-chlorophenyl)-5-(4-chlorophenyl)-3-oxomorpholin-2-yl)acetic acid or 2-((2S,5R,6R)-4-((S)-1-(tert-butylsulfonyl)pentan-3-yl)-6-(3-chlorophenyl)-5-(4-chlorophenyl)-3-oxomorpholin-2-yl)acetic acid], half-maximal inhibition (IC50) required 12 nM.

The molecule `C[C@@H](CS(=O)(=O)C(C)(C)C)N1C(=O)[C@@H](CC(N)=O)O[C@H](c2cccc(Cl)c2)[C@H]1c1ccc(Cl)cc1` (single isomer, unassigned) [Example 225, 2-((2R,5R,6R)-4-((S)-1-(tert-butylsulfonyl)propan-2-yl)-6-(3-chlorophenyl)-5-(4-chlorophenyl)-3-oxomorpholin-2-yl)acetamide or 2-((2S,5R,6R)-4-((S)-1-(tert-butylsulfonyl)propan-2-yl)-6-(3-chlorophenyl)-5-(4-chlorophenyl)-3-oxomorpholin-2-yl)acetamide] registered an IC50 of 6 nM.

For the molecule `C[C@@H](CS(=O)(=O)C(C)(C)C)N1C(=O)[C@H](CC(N)=O)O[C@H](c2cccc(Cl)c2)[C@H]1c1ccc(Cl)cc1` (single isomer, unassigned) [Example 226, 2-((2S,5R,6R)-4-((S)-1-(tert-butylsulfonyl)propan-2-yl)-6-(3-chlorophenyl)-5-(4-chlorophenyl)-3-oxomorpholin-2-yl)acetamide or 2-((2R,5R,6R)-4-((S)-1-(tert-butylsulfonyl)propan-2-yl)-6-(3-chlorophenyl)-5-(4-chlorophenyl)-3-oxomorpholin-2-yl)acetamide], the IC50 amounted to 11 nM.

For `CNC(=O)C[C@@H]1O[C@H](c2cccc(Cl)c2)[C@@H](c2ccc(Cl)cc2)N([C@@H](C)CS(=O)(=O)C(C)(C)C)C1=O` (single isomer, unassigned) [Example 227, 2-((2S,5R,6R)-4-((S)-1-(tert-butylsulfonyl)propan-2-yl)-6-(3-chlorophenyl)-5-(4-chlorophenyl)-3-oxomorpholin-2-yl)-N-methylacetamide or 2-((2R,5R,6R)-4-((S)-1-(tert-butylsulfonyl)propan-2-yl)-6-(3-chlorophenyl)-5-(4-chlorophenyl)-3-oxomorpholin-2-yl)-N-methylacetamide], it took 11 nM to reach half-maximal inhibition (IC50).

`CNC(=O)C[C@H]1O[C@H](c2cccc(Cl)c2)[C@@H](c2ccc(Cl)cc2)N([C@@H](C)CS(=O)(=O)C(C)(C)C)C1=O` (single isomer, unassigned) [Example 228, 2-((2R,5R,6R)-4-((S)-1-(tert-butylsulfonyl)propan-2-yl)-6-(3-chlorophenyl)-5-(4-chlorophenyl)-3-oxomorpholin-2-yl)-N-methylacetamide or 2-((2S,5R,6R)-4-((S)-1-(tert-butylsulfonyl)propan-2-yl)-6-(3-chlorophenyl)-5-(4-chlorophenyl)-3-oxomorpholin-2-yl)-N-methylacetamide]: the IC50 was 14 nM. This IC50 and that of the molecule before are within 1.5-fold of each other.

`C[C@@H](CS(=O)(=O)C(C)(C)C)N1C(=O)[C@H](CC(=O)NO)O[C@H](c2cccc(Cl)c2)[C@H]1c1ccc(Cl)cc1` (single isomer, unassigned) [Example 229, 2-((2S,5R,6R)-4-((S)-1-(tert-butylsulfonyl)propan-2-yl)-6-(3-chlorophenyl)-5-(4-chlorophenyl)-3-oxomorpholin-2-yl)-N-hydroxyacetamide or 2-((2R,5R,6R)-4-((S)-1-(tert-butylsulfonyl)propan-2-yl)-6-(3-chlorophenyl)-5-(4-chlorophenyl)-3-oxomorpholin-2-yl)-N-hydroxyacetamide]: the concentration for half-maximal inhibition (IC50) stood at 8 nM.

On to `C[C@@H](CS(=O)(=O)C(C)(C)C)N1C(=O)[C@@H](CC(=O)NO)O[C@H](c2cccc(Cl)c2)[C@H]1c1ccc(Cl)cc1` (single isomer, unassigned) [Example 230, 2-((2R,5R,6R)-4-((S)-1-(tert-butylsulfonyl)propan-2-yl)-6-(3-chlorophenyl)-5-(4-chlorophenyl)-3-oxomorpholin-2-yl)-N-hydroxyacetamide or 2-((2S,5R,6R)-4-((S)-1-(tert-butylsulfonyl)propan-2-yl)-6-(3-chlorophenyl)-5-(4-chlorophenyl)-3-oxomorpholin-2-yl)-N-hydroxyacetamide], for which the IC50 turned out to be 7 nM. This IC50 and that of the molecule before are within 1.5-fold of each other.

As for `C[C@@H](CS(=O)(=O)C(C)(C)C)N1C(=O)[C@H](CC(=O)N(C)C)O[C@H](c2cccc(Cl)c2)[C@H]1c1ccc(Cl)cc1` (single isomer, unassigned) [Example 231, 2-((2S,5R,6R)-4-((S)-1-(tert-butylsulfonyl)propan-2-yl)-6-(3-chlorophenyl)-5-(4-chlorophenyl)-3-oxomorpholin-2-yl)-N,N-dimethylacetamide or 2-((2R,5R,6R)-4-((S)-1-(tert-butylsulfonyl)propan-2-yl)-6-(3-chlorophenyl)-5-(4-chlorophenyl)-3-oxomorpholin-2-yl)-N,N-dimethylacetamide], the IC50 was determined as 16 nM. This IC50 lies about 2.3-fold higher than the previous one.

The molecule `C[C@@H](CS(=O)(=O)C(C)(C)C)N1C(=O)[C@@H](CC(=O)N(C)C)O[C@H](c2cccc(Cl)c2)[C@H]1c1ccc(Cl)cc1` (single isomer, unassigned) [Example 232, 2-((2R,5R,6R)-4-((S)-1-(tert-butylsulfonyl)propan-2-yl)-6-(3-chlorophenyl)-5-(4-chlorophenyl)-3-oxomorpholin-2-yl)-N,N-dimethylacetamide or 2-((2S,5R,6R)-4-((S)-1-(tert-butylsulfonyl)propan-2-yl)-6-(3-chlorophenyl)-5-(4-chlorophenyl)-3-oxomorpholin-2-yl)-N,N-dimethylacetamide] came in with an IC50 of 31 nM.

With `C[C@@H](CS(=O)(=O)C(C)(C)C)N1C(=O)[C@H](CC(=O)NCCO)O[C@H](c2cccc(Cl)c2)[C@H]1c1ccc(Cl)cc1` (single isomer, unassigned) [Example 233, 2-((2S,5R,6R)-4-((S)-1-(tert-butylsulfonyl)propan-2-yl)-6-(3-chlorophenyl)-5-(4-chlorophenyl)-3-oxomorpholin-2-yl)-N-(2-hydroxyethyl)acetamide or 2-((2R,5R,6R)-4-((S)-1-(tert-butylsulfonyl)propan-2-yl)-6-(3-chlorophenyl)-5-(4-chlorophenyl)-3-oxomorpholin-2-yl)-N-(2-hydroxyethyl)acetamide], 6 nM corresponded to half-maximal inhibition (IC50).

For the molecule `C[C@@H](CS(=O)(=O)C(C)(C)C)N1C(=O)[C@@H](CC(=O)NCCO)O[C@H](c2cccc(Cl)c2)[C@H]1c1ccc(Cl)cc1` (single isomer, unassigned) [Example 234, 2-((2R,5R,6R)-4-((S)-1-(tert-butylsulfonyl)propan-2-yl)-6-(3-chlorophenyl)-5-(4-chlorophenyl)-3-oxomorpholin-2-yl)-N-(2-hydroxyethyl)acetamide or 2-((2S,5R,6R)-4-((S)-1-(tert-butylsulfonyl)propan-2-yl)-6-(3-chlorophenyl)-5-(4-chlorophenyl)-3-oxomorpholin-2-yl)-N-(2-hydroxyethyl)acetamide], the IC50 worked out at 15 nM.

`C[C@@H](CS(=O)(=O)C(C)(C)C)N1C(=O)[C@H](CC(=O)N2CCOCC2)O[C@H](c2cccc(Cl)c2)[C@H]1c1ccc(Cl)cc1` (single isomer, unassigned) [Example 235, (2S,5R,6R)-4-((S)-1-(tert-butylsulfonyl)propan-2-yl)-6-(3-chlorophenyl)-5-(4-chlorophenyl)-2-(2-morpholino-2-oxoethyl)morpholin-3-one or (2R,5R,6R)-4-((S)-1-(tert-butylsulfonyl)propan-2-yl)-6-(3-chlorophenyl)-5-(4-chlorophenyl)-2-(2-morpholino-2-oxoethyl)morpholin-3-one]: the IC50 was 11 nM.

As for `C[C@@H](CS(=O)(=O)C(C)(C)C)N1C(=O)[C@@H](CC(=O)N2CCOCC2)O[C@H](c2cccc(Cl)c2)[C@H]1c1ccc(Cl)cc1` (single isomer, unassigned) [Example 236, (2R,5R,6R)-4-((S)-1-(tert-butylsulfonyl)propan-2-yl)-6-(3-chlorophenyl)-5-(4-chlorophenyl)-2-(2-morpholino-2-oxoethyl)morpholin-3-one or (2S,5R,6R)-4-((S)-1-(tert-butylsulfonyl)propan-2-yl)-6-(3-chlorophenyl)-5-(4-chlorophenyl)-2-(2-morpholino-2-oxoethyl)morpholin-3-one], the IC50 came to 22 nM.

Molecule `C[C@@H](CS(=O)(=O)C(C)(C)C)N1C(=O)[C@H](CC(=O)NS(C)(=O)=O)O[C@H](c2cccc(Cl)c2)[C@H]1c1ccc(Cl)cc1` (single isomer, unassigned) [Example 237] showed an IC50 of 3 nM.
